We go through 24 compounds from patent US8461328B2, “Tricyclic heterocyclic compounds, compositions and methods of use thereof” (Genentech, Inc., priority 2010, dated 2013).

Common to all, as to type: biochemical
Experiment [1] addresses T1, JAK3 (Homo sapiens, UniProt P52333).
T1 construct: made in house; host or cells: SF9 insect cells (baculovirus)
Kind of experiment: JAK3 inhibition (Table 4). Conditions: read-out: JAK3 Ki.

Experiment [2] addresses T2, JAK1 (Homo sapiens, UniProt P23458).
T2 construct: made in house; host or cells: SF9 insect cells (baculovirus)
As to the kind of experiment: JAK1 inhibition (Table 4).

The target of experiment [3] is T3, TYK2 (Homo sapiens, UniProt P29597).
T3 construct: made in house; host or cells: SF9 insect cells (baculovirus)
T3 sequence (P29597 873-1187): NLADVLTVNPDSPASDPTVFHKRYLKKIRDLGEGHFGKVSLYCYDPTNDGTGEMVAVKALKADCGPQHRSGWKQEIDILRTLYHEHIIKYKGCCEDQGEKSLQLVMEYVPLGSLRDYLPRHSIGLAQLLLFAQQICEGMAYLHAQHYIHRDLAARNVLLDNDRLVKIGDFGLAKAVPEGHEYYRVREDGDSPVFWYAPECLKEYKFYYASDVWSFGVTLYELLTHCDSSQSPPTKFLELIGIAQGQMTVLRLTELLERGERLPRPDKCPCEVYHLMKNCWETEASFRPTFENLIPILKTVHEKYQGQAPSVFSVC
As to the kind of experiment: TYK2 inhibition (Table 4).

The target in experiment [4] is T4, JAK2 (Homo sapiens, UniProt O60674).
T4 construct: made in house; host or cells: SF9 insect cells (baculovirus)
T4 sequence (O60674 812-1132): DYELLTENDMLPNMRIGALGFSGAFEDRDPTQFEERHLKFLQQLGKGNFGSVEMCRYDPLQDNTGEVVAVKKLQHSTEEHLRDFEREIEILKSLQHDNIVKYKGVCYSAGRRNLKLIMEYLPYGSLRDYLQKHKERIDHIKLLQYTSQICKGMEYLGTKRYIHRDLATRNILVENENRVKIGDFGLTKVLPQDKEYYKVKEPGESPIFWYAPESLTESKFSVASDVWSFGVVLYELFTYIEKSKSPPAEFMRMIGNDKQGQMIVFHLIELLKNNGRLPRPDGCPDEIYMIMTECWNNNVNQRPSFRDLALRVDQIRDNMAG
Kind of experiment: JAK2 inhibition (Table 4). Conditions: read-out: JAK2 Ki.

Read-outs that look alike come from different tables or passages of the source.

T2 sequence (P23458 852-1154): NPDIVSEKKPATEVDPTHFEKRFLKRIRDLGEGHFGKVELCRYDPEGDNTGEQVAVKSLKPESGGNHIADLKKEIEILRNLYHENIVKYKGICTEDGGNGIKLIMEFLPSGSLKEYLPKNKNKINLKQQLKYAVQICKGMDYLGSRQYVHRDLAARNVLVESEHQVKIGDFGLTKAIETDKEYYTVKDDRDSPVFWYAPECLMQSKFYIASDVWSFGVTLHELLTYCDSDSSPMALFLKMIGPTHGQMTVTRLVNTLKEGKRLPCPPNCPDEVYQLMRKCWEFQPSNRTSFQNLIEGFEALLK
T1 sequence (P52333 783-1124): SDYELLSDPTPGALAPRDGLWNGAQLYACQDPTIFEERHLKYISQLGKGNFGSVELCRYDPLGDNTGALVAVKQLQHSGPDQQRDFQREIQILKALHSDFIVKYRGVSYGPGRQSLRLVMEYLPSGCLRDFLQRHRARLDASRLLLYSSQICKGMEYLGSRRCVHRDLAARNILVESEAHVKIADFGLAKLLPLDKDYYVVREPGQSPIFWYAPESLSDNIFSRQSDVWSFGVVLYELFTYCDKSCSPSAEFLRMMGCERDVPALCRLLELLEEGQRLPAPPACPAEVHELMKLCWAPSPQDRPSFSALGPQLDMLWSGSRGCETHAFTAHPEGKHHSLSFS

On to `CC(C)NC(=O)Cc1nc2cnc3[nH]ccc3c2n1C1CCNCC1` [Example 261, N-Isopropyl-2-(1-piperidin-4-yl-1,6-dihydro-1,3,5,6-tetraaza-as-indacen-2-yl)-acetamide], for which the Ki (as a rule, the equilibrium dissociation constant of an inhibitor or competing ligand from its target) turned out to be 108 nM in experiment [1], 39 nM in experiment [2] (read-out: JAK1 Ki), 678 nM in experiment [3] and 426 nM in experiment [4].
Taken in the same sequence, the figures for `O=C(Cc1nc2cnc3[nH]ccc3c2n1C1CCNCC1)N1CCS(=O)(=O)CC1` [Example 262, 1-(1,1-Dioxo-1lambda*6*-thiomorpholin-4-yl)-2-(1-piperidin-4-yl-1,6-dihydro-1,3,5,6-tetraaza-as-indacen-2-yl)-ethanone] were 96.5 nM, 21.2 nM, 165 nM and 663 nM.
The like results for `CN(C(=O)Cc1nc2cnc3[nH]ccc3c2n1C1CCN(CCC#N)CC1)C1CCCC1` [Example 263, 2-{1-[1-(2-Cyano-ethyl)-piperidin-4-yl]-1,6-dihydro-1,3,5,6-tetraaza-as-indacen-2-yl}-N-cyclopentyl-N-methyl-acetamide] were, in that order, 19.1 nM, 55.3 nM, 401 nM and 152 nM.
The like results for `N#CCCN1CCC(n2c(CC(N)=O)nc3cnc4[nH]ccc4c32)CC1` [Example 264, 2-{1-[1-(2-Cyano-ethy)-piperidin-4-yl]-1,6-dihydro-1,3,5,6-tetraaza-as-indacen-2-yl}-acetamide] were, in that order, 14.1 nM, 5.32 nM, 63.4 nM and 26.7 nM.
`O=C(Cc1nc2cnc3[nH]ccc3c2n1C1CCNCC1)NC1CCCC1` [Example 265, N-Cyclopentyl-2-(1-piperidin-4-yl-1,6-dihydro-1,3,5,6-tetraaza-as-indacen-2-yl)-acetamide]: the Ki in experiment [1] was 66.1 nM; in experiment [2] (read-out: JAK1 Ki) it was 29.7 nM; in experiment [3] it was 570 nM; in experiment [4] it was 406 nM.
Taken in the same sequence, the figures for `CC(C)NC(=O)Cc1nc2cnc3[nH]ccc3c2n1C1CCN(CCC#N)CC1` [Example 266, 2-{1-[1-(2-Cyano-ethyl)-piperidin-4-yl]-1,6-dihydro-1,3,5,6-tetraaza-as-indacen-2-yl}-N-isopropyl-acetamide] were 7.87 nM, 5.26 nM, 120 nM and 17.2 nM.
As to `N#CCCN1CCC(n2c(CC(=O)N3CCS(=O)(=O)CC3)nc3cnc4[nH]ccc4c32)CC1` [Example 267, 3-(4-{2-[2-(1,1-Dioxo-1lambda*6*-thiomorpholin-4-yl)-2-oxo-ethyl]-6H-1,3,5,6-tetraaza-as-indacen-1-yl}-piperidin-1-yl)-propionitrile], the Ki was 7.02 nM in experiment [1], 7.52 nM in experiment [2] (read-out: JAK1 Ki), 63.2 nM in experiment [3] and 55.6 nM in experiment [4].
The like results for `N#CCCN1CCC(n2c(CC(=O)NC3CCCC3)nc3cnc4[nH]ccc4c32)CC1` [Example 268, 2-{1-[1-(2-Cyano-ethyl)-piperidin-4-yl]-1,6-dihydro-1,3,5,6-tetraaza-as-indacen-2-yl}-N-cyclopentyl-acetamide] were, in that order, 7.5 nM, 5.06 nM, 120 nM and 16.1 nM.
The like results for `O=C(Cc1nc2cnc3[nH]ccc3c2n1C1CCNCC1)N1CC(F)(F)C1` [Example 269, 1-(3,3-Difluoro-azetidin-1-yl)-2-(1-piperidin-4-yl-1,6-dihydro-1,3,5,6-tetraaza-as-indacen-2-yl)-ethanone] were, in that order, 245 nM, 84.4 nM, 1700 nM and 1310 nM.
Taken in the same sequence, the figures for `N#CCCN1CCC(n2c(CC(=O)N3CCCC3)nc3cnc4[nH]ccc4c32)CC1` [Example 270, 3-{4-[2-(2-Oxo-2-pyrrolidin-1-yl-ethyl)-6H-1,3,5,6-tetraaza-as-indacen-1-yl]-piperidin-1-yl}-propionitrile] were 15.1 nM, 36.1 nM, 352 nM and 121 nM.
Consider `Cc1nc2cnc3[nH]ccc3c2n1[C@@H]1C[C@H]2CC[C@@H](C1)N2Cc1ccccc1` [Example 271, 1-(8-Benzyl-8-aza-bicyclo[3.2.1]oct-3-yl)-2-methyl-1,6-dihydro-1,3,5,6-tetraaza-as-indacene], for which the Ki in experiment [1] is 60.4 nM; in experiment [2] (read-out: JAK1 Ki) it was 17.4 nM; in experiment [3], 302 nM; in experiment [4], 12.4 nM.
Taken in the same sequence, the figures for `Cc1nc2cnc3[nH]ccc3c2n1[C@@H]1CCCN(C(=O)CC#N)C1` [Example 272] were 3.14 nM, 0.5 nM, 4.71 nM and 1.35 nM.
On to `Cc1nc2cnc3[nH]ccc3c2n1[C@H]1CC[C@H](N)CC1` [Example 273, 4-(2-Methyl-6H-1,3,5,6-tetraaza-as-indacen-1-yl)-cyclohexylamine], for which the inhibitory constant (Ki) was determined as 19.2 nM in experiment [1], 5.29 nM in experiment [2] (read-out: JAK1 Ki), 48.4 nM in experiment [3] and 18.9 nM in experiment [4].
Consider `N#CCCN1CCC(n2c(CC(=O)N3CC(F)(F)C3)nc3cnc4[nH]ccc4c32)CC1` [Example 274, 3-(4-{2-[2-(3,3-Difluoro-azetidin-1-yl)-2-oxo-ethyl]-6H-1,3,5,6-tetraaza-as-indacen-1-yl]-piperidin-1-yl}-propionitrile], for which the Ki worked out at 39.3 nM in experiment [1], 34.3 nM in experiment [2] (read-out: JAK1 Ki), 259 nM in experiment [3] and 88.8 nM in experiment [4].
The like results for `CC(C)(C)OC(=O)N[C@H]1CC[C@H](n2nnc3cnc4[nH]ccc4c32)CC1` [Example 276, [4-(6H-1,2,3,5,6-Pentaaza-as-indacen-1-yl)-cyclohexyl]-carbamic acid tert-butyl ester] were, in that order, 378 nM, 12.1 nM, 460 nM and 32.3 nM.
Taken in the same sequence, the figures for `OCc1nc2cnc3[nH]ccc3c2n1C1CCN(Cc2cccnc2)CC1` [Example 278, [1-(1-Pyridin-3-ylmethyl-piperidin-4-yl)-1,6-dihydro-1,3,5,6-tetraaza-as-indacen-2-yl]-methanol] were 6.41 nM, 1.52 nM, 54.4 nM and 5.19 nM.
As to `CC(C)c1nc2cnc3[nH]ccc3c2n1C1CCN(CCC#N)CC1` [Example 281, 3-[4-(2-Isopropyl-6H-1,3,5,6-tetraaza-as-indacen-1-yl)-piperidin-1-yl]-propionitrile], the inhibition constant (Ki) stood at 16.3 nM in experiment [1], 7.49 nM in experiment [2] (read-out: JAK1 Ki), 171 nM in experiment [3] and 25.1 nM in experiment [4].
Taken in the same sequence, the figures for `c1cncc(CN2CCC(n3nnc4cnc5[nH]ccc5c43)CC2)c1` [Example 282, 1-(1-Pyridin-3-ylmethyl-piperidin4-yl)-1,6-dihydro-1,2,3,5,6-pentaaza-as-indacene] were 48.1 nM, 7.53 nM, 260 nM and 12.1 nM.
The like results for `Cc1nc2cnc3[nH]ccc3c2n1C1CCN(Cc2cccnc2)CC1` [Example 283, 2-Methyl-1-(1-pyridin-3-ylmethyl-piperidin-4-yl)-1,6-dihydro-1,3,5,6-tetraaza-as-indacene] were, in that order, 2.63 nM, 0.84 nM, 50.2 nM and 1.93 nM.
Taken in the same sequence, the figures for `CN1CCC[C@H]1C(=O)N1CCC(n2nnc3cnc4[nH]ccc4c32)CC1` [Example 284, ((S)-1-Methyl-pyrrolidin-2-yl)-[4-(6H-1,2,3,5,6-pentaaza-as-indacen-1-yl)-piperidin-1-yl]-methanone] were 2630 nM, 92.5 nM, 3430 nM and 604 nM.
Consider `O=C(Cc1nc2cnc3[nH]ccc3c2n1C1CCN(Cc2cccnc2)CC1)N1CCC(F)(F)CC1` [Example 286, 1-(4,4-Difluoro-piperidin-yl)-2-[1-(1-pyridin-3-ylmethyl-piperidin-4-yl)-1,6-dihydro-1,3,5,6-tetraaza-as-indacen-2-yl]-ethanone], for which the inhibition constant (Ki) in experiment [1] was 6.46 nM; in experiment [2] (read-out: JAK1 Ki), 3.56 nM; in experiment [3], 442 nM; in experiment [4] it was 47.8 nM.
`FC(F)(F)c1nc2cnc3[nH]ccc3c2n1[C@@H]1CCCN(Cc2ccccc2)C1` [Example 287]: the Ki is 822 nM in experiment [1], 282 nM in experiment [2] (JAK1 Ki), 2050 nM in experiment [3] and 145 nM in experiment [4].
As to `N#Cc1nc2cnc3[nH]ccc3c2n1C1CCN(Cc2cccnc2)CC1` [Example 290, 1-(1-Pyridin-3-ylmethyl-piperidin-4-yl)-1,6-dihydro-1,3,5,6-tetraaza-as-indacene-2-carbonitrile], the Ki in experiment [1] is 6.27 nM; in experiment [2] (read-out: JAK1 Ki) it was 3.94 nM; in experiment [3] it was 204 nM; in experiment [4], 4.88 nM.
The like results for `N#CCCN1CCC(n2c(C#N)nc3cnc4[nH]ccc4c32)CC1` [Example 293, 1-[1-(2-Cyano-ethyl)-piperidin-4-yl]-1,6-dihydro-1,3,5,6-tetraaza-as-indacene-2-carbonitrile] were, in that order, 14 nM, 1.21 nM, 11.9 nM and 1.31 nM.
